SMILES strings stand for the structures.

Sequence of ROCK1 (Q13464 whole entry, species assumed): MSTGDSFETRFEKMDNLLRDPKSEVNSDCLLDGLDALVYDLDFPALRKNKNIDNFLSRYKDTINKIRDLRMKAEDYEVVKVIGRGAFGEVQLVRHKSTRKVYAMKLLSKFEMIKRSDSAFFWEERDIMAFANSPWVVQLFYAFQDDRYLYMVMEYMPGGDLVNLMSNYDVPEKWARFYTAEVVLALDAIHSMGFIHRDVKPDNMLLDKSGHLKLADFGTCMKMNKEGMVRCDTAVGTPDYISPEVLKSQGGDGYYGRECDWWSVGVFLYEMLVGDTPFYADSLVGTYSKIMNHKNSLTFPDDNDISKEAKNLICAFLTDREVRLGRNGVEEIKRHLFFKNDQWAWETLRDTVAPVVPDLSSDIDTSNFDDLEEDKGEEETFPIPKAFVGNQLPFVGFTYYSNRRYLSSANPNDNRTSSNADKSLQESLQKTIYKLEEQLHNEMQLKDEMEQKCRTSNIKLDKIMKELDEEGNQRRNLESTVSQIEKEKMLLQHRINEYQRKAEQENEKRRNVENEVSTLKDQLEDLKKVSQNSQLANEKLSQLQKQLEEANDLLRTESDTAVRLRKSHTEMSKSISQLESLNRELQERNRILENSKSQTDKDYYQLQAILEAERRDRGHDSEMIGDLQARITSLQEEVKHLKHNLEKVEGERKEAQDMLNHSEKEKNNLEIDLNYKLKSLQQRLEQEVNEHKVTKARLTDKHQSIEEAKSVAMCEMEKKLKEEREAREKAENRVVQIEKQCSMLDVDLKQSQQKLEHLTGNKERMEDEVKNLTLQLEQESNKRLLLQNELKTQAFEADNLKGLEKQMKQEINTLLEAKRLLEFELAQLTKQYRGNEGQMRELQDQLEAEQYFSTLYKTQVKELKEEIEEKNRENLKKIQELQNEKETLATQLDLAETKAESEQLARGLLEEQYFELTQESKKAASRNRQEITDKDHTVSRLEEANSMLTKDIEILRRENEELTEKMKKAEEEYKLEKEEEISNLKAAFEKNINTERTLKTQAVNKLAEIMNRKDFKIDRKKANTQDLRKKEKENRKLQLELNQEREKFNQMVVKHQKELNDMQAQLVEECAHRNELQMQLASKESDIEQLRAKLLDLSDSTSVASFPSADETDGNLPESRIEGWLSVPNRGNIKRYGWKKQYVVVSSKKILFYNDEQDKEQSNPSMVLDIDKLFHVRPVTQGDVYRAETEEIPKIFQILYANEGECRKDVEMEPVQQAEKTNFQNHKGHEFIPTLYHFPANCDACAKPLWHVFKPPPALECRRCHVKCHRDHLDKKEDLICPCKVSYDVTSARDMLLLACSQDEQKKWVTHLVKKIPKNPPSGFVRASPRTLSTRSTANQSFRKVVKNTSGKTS

In the first assay the target is ROCK2 (Homo sapiens (Human), UniProt O75116). The assay is described as follows: ROCK Kinase Inhibition Assay (ROCK2). The settings on record: KINASE-GLO luminescent kinase assay. The assay is classed as biochemical. The procedure: (§1) All compounds were initially prepared as 10 mM stocks in anhydrous dimethylsulfoxide (DMSO). A 20 μL aliquot of the 10 mM solutions was transferred to individual wells in column 1 of a 96-well polypropylene microtiter plate (Corning #3363) and diluted with DMSO to give a final compound concentration of 4 mM. Test compounds were then serially diluted 1:5 in DMSO for an 11-point concentration response and further diluted in the assay buffer bringing all compound concentrations to a final range of 100 μM to […] in 2.5% DMSO. The assay was performed in white 96-well, flat-bottom, half-area, non-binding assay plate (Corning #3642) in assay buffer consisting of 20 mM HEPES (pH 7.5), 10 mM MgCl2*6H2O, 100 μM sodium orthovanadate, 0.05% CHAPS and 0.1% bovine serum albumin. […] The reaction was initiated by the addition of 10 μL of 4× stock solution ATP (2 μM). Reactions were thoroughly mixed manually, covered and allowed to incubate at room temperature for 75 min. Protein kinase activity was quantitated using Promega's KINASE-GLO™ luminescent Kinase Assay Kit according to the manufacturer's directions. ATP concentrations remaining in Test wells following the termination of the enzymatic reaction were compared against control wells containing equivalent amounts of DMSO containing no inhibitor (CTRL). […] Percent of Control (POC) values were determined for each concentration of compound tested according to the equation: POC=((Test well value−BKG)/(CTRL−BKG))*100 IC50 values were calculated using the following 4-parameter logistic curve-fitting algorithm: f(x)=(A+((B−A)/(1+((x/C)^D)))) IC50 values were converted to Ki values using the following Cheng-Prusoff Equation: Ki=IC50/(1+([ATP]/Km ATP])). JAK Kinase Assays.
Sequence of ROCK2 (O75116 whole entry, species assumed): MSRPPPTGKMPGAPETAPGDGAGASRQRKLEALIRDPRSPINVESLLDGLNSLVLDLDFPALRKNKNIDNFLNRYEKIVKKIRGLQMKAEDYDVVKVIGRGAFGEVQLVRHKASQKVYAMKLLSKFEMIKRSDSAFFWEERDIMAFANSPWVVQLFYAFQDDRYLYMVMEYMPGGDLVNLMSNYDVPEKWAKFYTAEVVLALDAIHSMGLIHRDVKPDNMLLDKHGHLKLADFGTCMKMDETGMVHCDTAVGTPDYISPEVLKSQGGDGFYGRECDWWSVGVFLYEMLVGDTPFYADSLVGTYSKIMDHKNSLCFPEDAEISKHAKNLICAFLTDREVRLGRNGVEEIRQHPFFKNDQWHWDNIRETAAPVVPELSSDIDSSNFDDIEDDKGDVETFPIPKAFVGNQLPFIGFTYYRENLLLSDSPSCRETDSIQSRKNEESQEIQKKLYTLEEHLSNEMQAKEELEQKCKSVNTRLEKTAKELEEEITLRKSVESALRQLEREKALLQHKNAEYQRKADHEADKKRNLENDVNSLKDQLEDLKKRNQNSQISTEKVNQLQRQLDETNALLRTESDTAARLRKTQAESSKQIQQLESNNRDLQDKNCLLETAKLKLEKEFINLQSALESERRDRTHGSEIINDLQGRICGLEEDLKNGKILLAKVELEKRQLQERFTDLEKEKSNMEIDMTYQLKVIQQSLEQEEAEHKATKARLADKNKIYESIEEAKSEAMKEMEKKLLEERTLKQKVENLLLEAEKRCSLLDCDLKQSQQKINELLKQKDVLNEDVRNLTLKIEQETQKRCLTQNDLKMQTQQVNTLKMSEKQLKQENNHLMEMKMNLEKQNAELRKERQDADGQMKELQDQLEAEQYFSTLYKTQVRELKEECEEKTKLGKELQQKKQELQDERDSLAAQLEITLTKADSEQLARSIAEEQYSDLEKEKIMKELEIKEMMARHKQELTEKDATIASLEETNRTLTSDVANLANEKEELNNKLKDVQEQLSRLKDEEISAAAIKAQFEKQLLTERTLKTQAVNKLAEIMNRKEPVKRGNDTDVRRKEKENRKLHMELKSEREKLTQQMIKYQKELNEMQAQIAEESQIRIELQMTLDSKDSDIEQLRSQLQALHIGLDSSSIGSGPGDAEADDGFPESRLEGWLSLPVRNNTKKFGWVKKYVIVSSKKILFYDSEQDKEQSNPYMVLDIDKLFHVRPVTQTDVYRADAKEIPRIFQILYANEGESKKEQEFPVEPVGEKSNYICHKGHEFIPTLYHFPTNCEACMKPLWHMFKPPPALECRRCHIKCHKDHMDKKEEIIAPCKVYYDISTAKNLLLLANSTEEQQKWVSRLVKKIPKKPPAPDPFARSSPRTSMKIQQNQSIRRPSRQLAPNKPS
(Kinase-Glo reads ATP consumption through a luciferase reaction.)
On to `O=C(Nc1nc2ccncc2s1)[C@@H]1CC1c1ccc(S(=O)(=O)Nc2ccccn2)cc1` (mixture of isomers) [Compound 3], for which the 50% inhibitory concentration (IC50) amounted to 6 nM.

`O=C(Nc1ccc2cnccc2n1)[C@@H]1CC1c1ccc(S(=O)(=O)Nc2ccccn2)cc1` (mixture of isomers) [Compound 4] returned an IC50 of 6 nM.

The compound `Cc1cncc2sc(NC(=O)C3CC3c3cc(C(=O)NCc4ncccn4)cs3)cc12` (centres unmarked) [Compound 2] had an IC50 of 5 nM.

In turn, `O=C(Nc1ccc2cnccc2n1)C1CC1c1ccccc1` (centres unmarked) [Compound 11] showed a concentration for half-maximal inhibition (IC50) of 7 nM.

For the compound `O=C(Nc1nc2ccncc2s1)C1CC1c1ccccc1` (centres unmarked) [Compound 12], inhibition was half-maximal at 12 nM (IC50).

Compound `Cc1cncc2sc(NC(=O)[C@@H]3C[C@H]3c3ccccc3)cc12` [Compound 13] returned a half-maximal inhibitory concentration (IC50) of 18 nM.

The compound `Cc1cncc2sc(NC(=O)C3CC3c3ccncc3)cc12` (centres unmarked) [Compound 14] yielded an IC50 of 230 nM.

`Cc1cncc2sc(NC(=O)C3CC3c3ccccc3)cc12` (centres unmarked) [Compound 16] gave an IC50 of 54 nM.

Compound `O=C(Nc1ccc2cnccc2n1)C1CC1c1ccncc1` (centres unmarked) [Compound 17] showed a half-maximal inhibitory concentration (IC50) of 30 nM.

The compound `O=C(Nc1nc2ccncc2s1)C1CC1c1ccncc1` (centres unmarked) [Compound 18] returned a 50% inhibitory concentration (IC50) of 30 nM.

In turn, `O=C(Nc1cc2c(Cl)cncc2s1)C1CC1c1ccncc1` (centres unmarked) [Compound 21] came in with an IC50 of 111 nM.

In the next assay the target is ROCK1 (Homo sapiens (Human), UniProt Q13464). Nature of the assay: ROCK Kinase Inhibition Assay (ROCK1). The assay is classed as biochemical. The note with it: KINASE-GLO luminescent kinase assay. Here is the method:
as §1, with “Reactions were thoroughly mixed manually, covered and allowed to incubate at room temperature for 75 min.” left out, “directions.” for “directions. ATP concentrations remaining in Test wells following the termination of the enzymatic reaction were compared against control wells containing equivalent amounts of DMSO containing no inhibitor (CTRL).”, “JAK Kinase Assays.” left out
For `O=C(Nc1nc2ccncc2s1)[C@@H]1CC1c1ccc(S(=O)(=O)Nc2ccccn2)cc1` (mixture of isomers) [Compound 3], the 50% inhibitory concentration (IC50) was found to be 7 nM.

On to `O=C(Nc1cc2c(Cl)cncc2s1)C1CC1c1ccccc1` (centres unmarked) [Compound 19], for which the IC50 came to 43 nM.

In a further assay the target is JAK2 (Homo sapiens (Human), UniProt O60674). Nature of the assay: JAK Kinase Assay (JAK2). The assay is classed as biochemical. The note with it: KINASE-GLO luminescent kinase assay.
Sequence of JAK2 (O60674 whole entry, species assumed): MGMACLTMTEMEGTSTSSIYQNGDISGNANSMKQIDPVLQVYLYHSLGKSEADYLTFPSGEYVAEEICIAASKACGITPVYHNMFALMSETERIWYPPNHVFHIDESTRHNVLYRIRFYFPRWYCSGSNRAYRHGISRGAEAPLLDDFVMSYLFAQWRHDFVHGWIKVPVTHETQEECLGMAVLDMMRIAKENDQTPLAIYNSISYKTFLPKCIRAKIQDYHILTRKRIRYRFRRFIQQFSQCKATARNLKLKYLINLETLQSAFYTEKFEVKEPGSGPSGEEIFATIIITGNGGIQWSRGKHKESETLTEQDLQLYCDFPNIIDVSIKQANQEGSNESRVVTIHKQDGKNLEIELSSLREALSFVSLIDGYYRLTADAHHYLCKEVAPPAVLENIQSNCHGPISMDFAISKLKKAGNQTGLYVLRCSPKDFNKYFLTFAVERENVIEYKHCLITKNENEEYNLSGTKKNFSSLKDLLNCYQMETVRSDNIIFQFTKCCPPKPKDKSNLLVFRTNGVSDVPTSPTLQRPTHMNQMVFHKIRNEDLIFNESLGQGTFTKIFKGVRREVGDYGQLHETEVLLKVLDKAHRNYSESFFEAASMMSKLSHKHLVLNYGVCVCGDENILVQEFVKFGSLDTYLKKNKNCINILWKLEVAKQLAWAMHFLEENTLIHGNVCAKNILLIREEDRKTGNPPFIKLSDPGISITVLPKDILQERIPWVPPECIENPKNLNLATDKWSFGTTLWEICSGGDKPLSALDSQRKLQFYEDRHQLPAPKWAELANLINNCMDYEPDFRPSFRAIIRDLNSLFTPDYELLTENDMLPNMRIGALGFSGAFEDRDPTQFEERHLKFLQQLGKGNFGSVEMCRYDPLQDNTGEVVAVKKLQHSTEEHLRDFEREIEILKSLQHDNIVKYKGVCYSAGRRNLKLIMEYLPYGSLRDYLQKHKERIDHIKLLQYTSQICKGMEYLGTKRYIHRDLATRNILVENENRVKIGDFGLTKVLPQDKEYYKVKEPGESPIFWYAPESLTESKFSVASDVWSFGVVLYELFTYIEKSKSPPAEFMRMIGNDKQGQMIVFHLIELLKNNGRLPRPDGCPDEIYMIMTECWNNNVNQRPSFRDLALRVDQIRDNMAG
Take `O=C(Nc1ccc2cnccc2n1)[C@@H]1CC1c1ccc(S(=O)(=O)Nc2ccccn2)cc1` (mixture of isomers) [Compound 4]: the midpoint of inhibition, the IC50, lay at 22 nM.

As to `Cc1cncc2sc(NC(=O)[C@@H]3C[C@H]3c3ccc(S(=O)(=O)Nc4ccccn4)cc3)cc12` (racemic) [Compound 5], the midpoint of inhibition, the IC50, lay at 8.9 nM.

Take `O=C(Nc1ccc2cnccc2n1)C1CC1c1ccc(S(=O)(=O)Nc2ccccn2)cc1` (centres unmarked) [Compound 22]: inhibition was half-maximal at 22 nM (IC50).

The next assay deals with TYK2 (Homo sapiens (Human), UniProt P29597). Nature of the assay: JAK Kinase Assay (TYK2). The format is biochemical. The note with it: KINASE-GLO luminescent kinase assay.
Sequence of TYK2 (P29597 whole entry, species assumed): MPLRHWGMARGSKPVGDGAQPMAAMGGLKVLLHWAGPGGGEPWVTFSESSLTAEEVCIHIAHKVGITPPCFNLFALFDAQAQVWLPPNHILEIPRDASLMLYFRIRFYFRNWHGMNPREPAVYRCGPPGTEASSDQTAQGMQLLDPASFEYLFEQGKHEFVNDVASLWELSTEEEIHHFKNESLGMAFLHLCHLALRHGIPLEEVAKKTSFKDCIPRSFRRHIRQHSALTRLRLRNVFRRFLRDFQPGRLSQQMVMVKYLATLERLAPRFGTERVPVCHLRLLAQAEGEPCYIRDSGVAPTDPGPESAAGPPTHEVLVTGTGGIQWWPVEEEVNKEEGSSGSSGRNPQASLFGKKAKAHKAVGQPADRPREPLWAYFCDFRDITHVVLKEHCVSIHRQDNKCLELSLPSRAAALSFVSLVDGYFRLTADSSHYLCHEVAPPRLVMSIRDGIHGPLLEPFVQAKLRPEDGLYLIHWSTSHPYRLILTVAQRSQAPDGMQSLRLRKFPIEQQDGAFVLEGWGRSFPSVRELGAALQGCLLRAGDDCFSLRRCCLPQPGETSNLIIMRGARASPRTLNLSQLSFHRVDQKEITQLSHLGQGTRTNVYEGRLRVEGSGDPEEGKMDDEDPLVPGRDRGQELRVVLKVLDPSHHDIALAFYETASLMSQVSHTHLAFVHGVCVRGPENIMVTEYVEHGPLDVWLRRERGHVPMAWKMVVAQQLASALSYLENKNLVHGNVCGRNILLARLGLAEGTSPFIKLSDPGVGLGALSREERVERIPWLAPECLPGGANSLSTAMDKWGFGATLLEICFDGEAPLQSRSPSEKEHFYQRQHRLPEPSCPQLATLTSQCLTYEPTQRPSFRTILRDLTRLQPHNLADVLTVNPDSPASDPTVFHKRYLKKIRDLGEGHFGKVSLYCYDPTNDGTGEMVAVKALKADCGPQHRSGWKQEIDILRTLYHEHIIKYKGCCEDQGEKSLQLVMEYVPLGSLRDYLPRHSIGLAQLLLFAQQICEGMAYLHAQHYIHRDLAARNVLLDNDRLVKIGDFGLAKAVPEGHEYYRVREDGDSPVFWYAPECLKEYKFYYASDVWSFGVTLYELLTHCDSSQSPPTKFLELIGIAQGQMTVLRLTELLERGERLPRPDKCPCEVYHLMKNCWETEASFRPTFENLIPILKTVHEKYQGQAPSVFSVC
As to `Cc1cncc2sc(NC(=O)[C@@H]3C[C@H]3c3ccc(S(=O)(=O)Nc4ccccn4)cc3)cc12` [Compound 6], half-maximal inhibition (IC50) required 8 nM.

`O=C(Nc1cc2c(Cl)cncc2s1)[C@@H]1C[C@H]1c1ccc(S(=O)(=O)Nc2ccccn2)cc1` [Compound 7] had an IC50 of 1.1 nM.

As to `O=C(NCc1ncccn1)c1csc(C2CC2C(=O)Nc2cc3c(Cl)cncc3s2)c1` (centres unmarked) [Compound 20], the concentration for half-maximal inhibition (IC50) turned out to be 35 nM.

The next assay deals with JAK1 (Homo sapiens (Human), UniProt P23458). Nature of the assay: JAK Kinase Assay (JAK1). The note with it: KINASE-GLO luminescent kinase assay. The format is biochemical.
The compound `O=C(Nc1cc2c(Cl)cncc2s1)[C@@H]1C[C@H]1c1ccccc1` [Compound 15] showed a 50% inhibitory concentration (IC50) of 350 nM.

As a reminder, the IC50 is the point on the concentration scale where inhibition reaches its midpoint. The low end stands for higher potency, the high end for lower potency.

Source of the values: patent US12459956B2, “Heterobicyclic carboxamides and uses thereof” (ALCON INC., priority 2019, dated 2025).
